Reference: ChEMBL document CHEMBL1255467, “Comparative in vitro antimicrobial activities of torezolid (TR-700), the active moiety of a new oxazolidinone, torezolid phosphate (TR-701), determination of tentative disk diffusion interpretive criteria, and quality control ranges” (2010)

Columns and labels:
Staphylococcus aureus [1] = test: Antimicrobial activity against linezolid-resistant Staphylococcus aureus by broth dilution method; assay type: functional
Staphylococcus aureus [2] = test: Antimicrobial activity against methicillin-resistant Staphylococcus aureus by broth dilution method; assay type: functional; settings: Staphylococcus aureus
Staphylococcus aureus [3] = test: Antimicrobial activity against methicillin-susceptible Staphylococcus aureus by broth dilution method; assay type: functional; settings: Staphylococcus aureus
Staphylococcus aureus [4] = test: Antimicrobial activity against Staphylococcus aureus by broth dilution method; assay type: functional; settings: Staphylococcus aureus
Staphylococcus sp. [5] = test: Antimicrobial activity against Staphylococcus sp. by broth dilution method; assay type: functional; settings: Staphylococcus sp.
Staphylococcus sp. [6] = test: Antimicrobial activity against methicillin-resistant coagulase-negative Staphylococcus by broth dilution method; assay type: functional
Staphylococcus aureus [7] = test: Antimicrobial activity against vancomycin-nonsusceptible Staphylococcus aureus by broth dilution method; assay type: functional; settings: Staphylococcus aureus
Staphylococcus sp. [8] = test: Antimicrobial activity against methicillin-susceptible coagulase-negative Staphylococcus by broth dilution method; assay type: functional; settings: Staphylococcus sp.
Enterococcus sp. = test: Antimicrobial activity against Enterococcus by broth dilution method; assay type: functional; settings: Enterococcus sp.
Enterococcus faecalis [9] = test: Antimicrobial activity against vancomycin-resistant Enterococcus faecalis by broth dilution method; assay type: functional
Enterococcus faecalis [10] = test: Antimicrobial activity against vancomycin-susceptible Enterococcus faecalis by broth dilution method; assay type: functional; settings: Enterococcus faecalis
Enterococcus faecium [11] = test: Antimicrobial activity against vancomycin-resistant Enterococcus faecium by broth dilution method; assay type: functional
Enterococcus faecium [12] = test: Antimicrobial activity against vancomycin-susceptible Enterococcus faecium by broth dilution method; assay type: functional; settings: Enterococcus faecium
Streptococcus pneumoniae [13] = test: Antimicrobial activity against Streptococcus pneumoniae by broth dilution method; assay type: functional; settings: Streptococcus pneumoniae
Streptococcus pneumoniae [14] = test: Antimicrobial activity against penicillin-susceptible Streptococcus pneumoniae by broth dilution method; assay type: functional; settings: Streptococcus pneumoniae
Streptococcus pneumoniae [15] = test: Antimicrobial activity against penicillin-intermediate Streptococcus pneumoniae by broth dilution method; assay type: functional; settings: Streptococcus pneumoniae
Streptococcus pneumoniae [16] = test: Antimicrobial activity against penicillin-resistant Streptococcus pneumoniae by broth dilution method; assay type: functional
Streptococcus viridans = test: Antimicrobial activity against Streptococcus viridans by broth dilution method; assay type: functional
Corynebacterium jeikeium = test: Antimicrobial activity against Corynebacterium jeikeium by broth dilution method; assay type: functional
Listeria monocytogenes = test: Antimicrobial activity against Listeria monocytogenes by broth dilution method; assay type: functional
Moraxella catarrhalis = test: Antimicrobial activity against Moraxella catarrhalis by broth dilution method; assay type: functional
Haemophilus influenzae [17] = test: Antimicrobial activity against Haemophilus influenzae by broth dilution method; assay type: functional; settings: Haemophilus influenzae
Haemophilus influenzae [18] = test: Antimicrobial activity against beta-lactamase negative Haemophilus influenzae by broth dilution method; assay type: functional; settings: Haemophilus influenzae
Haemophilus influenzae [19] = test: Antimicrobial activity against beta-lactamase positive Haemophilus influenzae by broth dilution method; assay type: functional; settings: Haemophilus influenzae; for MIC90: read-out: MIC90
Haemophilus influenzae [20] = test: Antimicrobial activity against ampicillin-nonsusceptible beta-lactamase negative Haemophilus influenzae by broth dilution method; assay type: functional; settings: Haemophilus influenzae
Streptococcus sp = test: Antimicrobial activity against streptococcal sp. by broth dilution method; settings: Streptococcus sp.

C[C@H]1COc2c(N3CCN(C)CC3)c(F)cc3c(=O)c(C(=O)O)cn1c23.C[C@H]1COc2c(N3CCN(C)CC3)c(F)cc3c(=O)c(C(=O)O)cn1c23.O [LEVOFLOXACIN]
> 16 µg/mL: MIC50 (Staphylococcus aureus [1]) | MIC90 (Staphylococcus aureus [4]) | MIC90 (Staphylococcus sp. [5]) | MIC90 (Staphylococcus aureus [7]) | MIC50 (Enterococcus sp.) | MIC90 (Enterococcus sp.) | MIC50 (Enterococcus faecalis [9]) | MIC90 (Enterococcus faecalis [10]) | MIC50 (Enterococcus faecium [11]) | MIC90 (Enterococcus faecium [12]) | MIC (Corynebacterium jeikeium) | MIC50 (Corynebacterium jeikeium) | MIC90 (Corynebacterium jeikeium)
0.5 µg/mL: MIC50 (Staphylococcus sp. [5]) | MIC90 (Staphylococcus sp. [8])
0.12 µg/mL: MIC (Haemophilus influenzae [17]) | MIC50 (Haemophilus influenzae [17]) | MIC90 (Haemophilus influenzae [17]) | MIC (Haemophilus influenzae [18]) | MIC50 (Haemophilus influenzae [18]) | MIC90 (Haemophilus influenzae [18]) | MIC (Haemophilus influenzae [19]) | MIC50 (Haemophilus influenzae [19]) | MIC90 (Haemophilus influenzae [19]) | MIC (Haemophilus influenzae [20]) | MIC50 (Haemophilus influenzae [20]) | MIC90 (Haemophilus influenzae [20])
8 µg/mL: MIC50 (Staphylococcus aureus [2]) | MIC50 (Staphylococcus sp. [6])
0.25 µg/mL: MIC50 (Staphylococcus aureus [3]) | MIC50 (Staphylococcus sp. [8])
16 µg/mL: MIC50 (Staphylococcus aureus [7])
4 µg/mL: MIC90 (Staphylococcus aureus [3]) | MIC50 (Staphylococcus aureus [4]) | MIC50 (Enterococcus faecium [12])
0.06 µg/mL: MIC50 (Moraxella catarrhalis) | MIC90 (Moraxella catarrhalis)
1 µg/mL: MIC50 (Enterococcus faecalis [10]) | MIC50 (Streptococcus pneumoniae [13]) | MIC90 (Streptococcus pneumoniae [13]) | MIC50 (Streptococcus pneumoniae [14]) | MIC90 (Streptococcus pneumoniae [14]) | MIC50 (Streptococcus pneumoniae [15]) | MIC90 (Streptococcus pneumoniae [15]) | MIC50 (Streptococcus pneumoniae [16]) | MIC90 (Streptococcus pneumoniae [16]) | MIC50 (Streptococcus viridans) | MIC (Listeria monocytogenes) | MIC50 (Listeria monocytogenes) | MIC90 (Listeria monocytogenes) | MIC50 (Streptococcus sp) | MIC90 (Streptococcus sp)
2 µg/mL: MIC90 (Streptococcus viridans)

CO/N=C(\C(=O)N[C@@H]1C(=O)N2C(C(=O)O)=C(COC(C)=O)CS[C@H]12)c1csc(N)n1 [CEFOTAXIME]
0.03 µg/mL: MIC90 (Streptococcus pneumoniae [14]) | MIC50 (Streptococcus sp)
4 µg/mL: MIC50 (Staphylococcus sp. [5])
> 8 µg/mL: MIC50 (Staphylococcus aureus [4])
0.12 µg/mL: MIC50 (Streptococcus pneumoniae [13]) | MIC50 (Streptococcus pneumoniae [15]) | MIC50 (Streptococcus viridans)
0.015 µg/mL: MIC (Streptococcus pneumoniae [14]) | MIC50 (Streptococcus pneumoniae [14]) | MIC50 (Haemophilus influenzae [17]) | MIC90 (Haemophilus influenzae [18]) | MIC50 (Haemophilus influenzae [19]) | MIC90 (Haemophilus influenzae [19])
32 µg/mL: MIC50 (Corynebacterium jeikeium) | MIC90 (Corynebacterium jeikeium) | MIC50 (Listeria monocytogenes) | MIC90 (Listeria monocytogenes)
1 µg/mL: MIC50 (Streptococcus pneumoniae [16]) | MIC90 (Moraxella catarrhalis) | MIC90 (Streptococcus sp)
8 µg/mL: MIC50 (Staphylococcus sp. [6]) | MIC90 (Streptococcus pneumoniae [16])
0.25 µg/mL: MIC50 (Moraxella catarrhalis)
> 64 µg/mL: MIC90 (Staphylococcus aureus [4]) | MIC90 (Staphylococcus sp. [5]) | MIC50 (Staphylococcus aureus [7]) | MIC90 (Staphylococcus aureus [7]) | MIC50 (Enterococcus sp.) | MIC90 (Enterococcus sp.) | MIC50 (Enterococcus faecalis [10]) | MIC90 (Enterococcus faecalis [10]) | MIC (Enterococcus faecium [11]) | MIC50 (Enterococcus faecium [12]) | MIC90 (Enterococcus faecium [12])
2 µg/mL: MIC50 (Staphylococcus aureus [3]) | MIC90 (Staphylococcus aureus [3]) | MIC90 (Staphylococcus sp. [8]) | MIC90 (Streptococcus pneumoniae [13])
16 µg/mL: MIC50 (Staphylococcus aureus [2])
0.5 µg/mL: MIC50 (Staphylococcus sp. [8]) | MIC90 (Streptococcus pneumoniae [15]) | MIC90 (Streptococcus viridans) | MIC90 (Haemophilus influenzae [17]) | MIC50 (Haemophilus influenzae [20]) | MIC90 (Haemophilus influenzae [20])
0.008 µg/mL: MIC (Haemophilus influenzae [18]) | MIC50 (Haemophilus influenzae [18])
